Key:
EGFR (L858R/T790M/C797S) = EGFR (L858R/T790M/C797S) (Homo sapiens, UniProt P00533, C797S/L858R/T790M); assay: HotSpot radiometric kinase assay, inhibition of EGFR L858R/T790M/C797S mutant; assay type: biochemical; details: 33P ATP, room temperature, 120 m
Procedure, shortened: (§1)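 Radiometric filter-binding format: ATP plus 33P-ATP ([…]) was added about 20 min after compound to kinase and substrate in HEPES pH 7.5 buffer with Mg2+, EGTA, Brij35, BSA, vanadate, DTT and 1% DMSO. After 120 min at room temperature, reactions were spotted on P81 paper and washed in phosphoric acid; IC50 values fitted.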

EGFR (D746-750) = EGFR (D746-750) (Homo sapiens, UniProt P00533, DEL746-750); assay: HotSpot radiometric kinase assay, inhibition of EGFR 746-750 mutant; assay type: biochemical; details: 33P ATP, room temperature, 120 m
Procedure, shortened: as §1

EGFR (D746-750/C797S) = EGFR (D746-750/C797S) (Homo sapiens, UniProt P00533, C797S/DEL746-750); assay: HotSpot radiometric kinase assay, inhibition of EGFR 746-750/C797S mutant; assay type: biochemical; details: 33P ATP, room temperature, 120 m
Procedure, shortened: as §1

EGFR (D770_N771insNPG) = EGFR (D770_N771insNPG) (Homo sapiens, UniProt P00533, INS770NPG); assay: HotSpot radiometric kinase assay, inhibition of EGFR (D770_N771insNPG) mutant; assay type: biochemical; details: 33P ATP, room temperature, 120 m
Procedure, shortened: as §1

[1] = molecular target: T1, pEGFR, PC-9 cells (d746-750 EGFR) (Homo sapiens, UniProt P00533, DEL746-750); assay: Cellular EGFR phosphorylation assay (LANCE Ultra TR-FRET) in PC-9 cells; assay type: cell-based; details: 4 hours at 37° C., read-out: PC-9 pEGFR IC50
T1 construct: pEGFR (Tyr1068) TR-FRET
Procedure, shortened: (§2)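 Measured in intact cells exposed to compound for 4 hours, with A431 given EGF at 40 ng/mL for the closing 10 minutes; a TR-FRET antibody pair quantified phospho-Tyr1068 EGFR in lysates (4-6 h detection at room temperature), giving IC50.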

[2] = molecular target: T2, pEGFR, NCI-H1975 cells (L858R/T790M EGFR) (Homo sapiens, UniProt P00533, L858R/T790M); assay: Cellular EGFR phosphorylation assay (LANCE Ultra TR-FRET) in NCI-H1975 cells; assay type: cell-based; details: 4 hours at 37° C., read-out: H1975 pEGFR IC50
T2 construct: pEGFR (Tyr1068) TR-FRET
Procedure, shortened: as §2

[3] = molecular target: T3, pEGFR, A431 cells (wildtype EGFR) (Homo sapiens, UniProt P00533); assay: Cellular EGFR phosphorylation assay (LANCE Ultra TR-FRET) in A431 cells; assay type: cell-based; details: 4 hours at 37° C., 40 ng/mL EGF for the final 10 minutes, read-out: A431 pEGFR IC50
T3 construct: pEGFR (Tyr1068) TR-FRET
Procedure, shortened: as §2

PC-9 cells = assay: 5-Day CellTiter Glo (CTG) cell proliferation assay, PC-9; assay type: cell-based; details: Homo sapiens; PC-9 cells (d746-750 EGFR), 5-day CTG proliferation, 120 hours; read-out: PC-9 IC50
Procedure, shortened: (§3)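 Proliferation of EGFR-driven NSCLC cells was scored as CellTiter-Glo 2.0 luminescence after a 5-day (120 h) incubation with compounds in 9 doses. IC50 values came from the dose-response curves.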

NCI-H1975 cells = assay: 5-Day CellTiter Glo (CTG) cell proliferation assay, NCI-H1975; assay type: cell-based; details: Homo sapiens; NCI-H1975 cells (L858R/T790M EGFR), 5-day CTG proliferation, 120 hours; read-out: H1975 IC50
Procedure, shortened: as §3

HCC827 cells = assay: 5-Day CellTiter Glo (CTG) cell proliferation assay, HCC827; assay type: cell-based; details: Homo sapiens; HCC827 cells (d746-750 EGFR), 5-day CTG proliferation, 120 hours; read-out: HCC827 IC50
Procedure, shortened: as §3

[4] = test system: BaF3 cells with engineered EGFR L858R/T790M/C797S; assay: 3-Day CellTiter Glo (CTG) cell proliferation assay, BaF3 EGFR L858R/T790M/C797S; assay type: cell-based; details: Mus musculus, 3-day CTG proliferation, 72 hours
Procedure, shortened: (§4)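 Viability after 72 h compound exposure (9 concentrations, 37° C, 5% CO2) was measured as ATP luminescence with CellTiter-Glo 2.0 in EGFR-mutant-engineered BaF3 cells plated at one thousand cells per well. IC50 values obtained by curve fitting.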

[5] = test system: BaF3 cells with engineered EGFR L858R/C797S; assay: 3-Day CellTiter Glo (CTG) cell proliferation assay, BaF3 EGFR L858R/C797S; assay type: cell-based; details: Mus musculus, 3-day CTG proliferation, 72 hours
Procedure, shortened: as §4

[6] = test system: BaF3 cells with engineered EGFR d746-750/T790M; assay: 3-Day CellTiter Glo (CTG) cell proliferation assay, BaF3 EGFR d746-750/T790M; assay type: cell-based; details: Mus musculus; BaF3 EGFR d746-750/T790M cells, 3-day CTG proliferation, 72 hours
Procedure, shortened: as §4

T2 sequence (P00533 25-1210 T790M/L858R): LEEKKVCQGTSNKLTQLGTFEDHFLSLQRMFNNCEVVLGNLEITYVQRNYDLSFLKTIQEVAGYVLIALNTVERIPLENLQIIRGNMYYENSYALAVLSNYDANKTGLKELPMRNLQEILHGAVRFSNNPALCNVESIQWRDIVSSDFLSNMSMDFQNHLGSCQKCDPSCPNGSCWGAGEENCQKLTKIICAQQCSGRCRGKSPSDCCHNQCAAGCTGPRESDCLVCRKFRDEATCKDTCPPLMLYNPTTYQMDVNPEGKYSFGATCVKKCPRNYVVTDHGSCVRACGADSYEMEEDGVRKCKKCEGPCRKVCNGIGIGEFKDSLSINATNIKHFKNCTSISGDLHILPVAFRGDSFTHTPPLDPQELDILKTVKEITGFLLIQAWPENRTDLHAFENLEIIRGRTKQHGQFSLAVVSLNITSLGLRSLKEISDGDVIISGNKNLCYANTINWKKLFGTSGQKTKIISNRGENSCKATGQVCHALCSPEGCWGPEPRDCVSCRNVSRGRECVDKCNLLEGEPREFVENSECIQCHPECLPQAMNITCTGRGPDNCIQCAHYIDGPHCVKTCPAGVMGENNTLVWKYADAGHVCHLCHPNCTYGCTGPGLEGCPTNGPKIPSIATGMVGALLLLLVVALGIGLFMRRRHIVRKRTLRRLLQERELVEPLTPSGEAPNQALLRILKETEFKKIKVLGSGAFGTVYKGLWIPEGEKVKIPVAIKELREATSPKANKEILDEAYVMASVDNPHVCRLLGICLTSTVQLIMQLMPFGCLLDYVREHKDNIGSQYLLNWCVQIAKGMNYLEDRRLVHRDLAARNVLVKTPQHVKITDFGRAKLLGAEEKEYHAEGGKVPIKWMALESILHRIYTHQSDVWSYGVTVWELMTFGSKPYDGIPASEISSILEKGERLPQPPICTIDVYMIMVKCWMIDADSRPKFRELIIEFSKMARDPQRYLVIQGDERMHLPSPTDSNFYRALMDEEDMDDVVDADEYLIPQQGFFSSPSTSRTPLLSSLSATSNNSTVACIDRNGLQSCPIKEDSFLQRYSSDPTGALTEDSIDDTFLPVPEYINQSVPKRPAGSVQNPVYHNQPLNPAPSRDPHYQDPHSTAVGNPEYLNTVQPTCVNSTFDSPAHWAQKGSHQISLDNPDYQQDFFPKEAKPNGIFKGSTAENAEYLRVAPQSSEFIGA
Sequence of EGFR (D770_N771insNPG) (P00533 with tags, fused parts or gaps INS770NPG limits assumed): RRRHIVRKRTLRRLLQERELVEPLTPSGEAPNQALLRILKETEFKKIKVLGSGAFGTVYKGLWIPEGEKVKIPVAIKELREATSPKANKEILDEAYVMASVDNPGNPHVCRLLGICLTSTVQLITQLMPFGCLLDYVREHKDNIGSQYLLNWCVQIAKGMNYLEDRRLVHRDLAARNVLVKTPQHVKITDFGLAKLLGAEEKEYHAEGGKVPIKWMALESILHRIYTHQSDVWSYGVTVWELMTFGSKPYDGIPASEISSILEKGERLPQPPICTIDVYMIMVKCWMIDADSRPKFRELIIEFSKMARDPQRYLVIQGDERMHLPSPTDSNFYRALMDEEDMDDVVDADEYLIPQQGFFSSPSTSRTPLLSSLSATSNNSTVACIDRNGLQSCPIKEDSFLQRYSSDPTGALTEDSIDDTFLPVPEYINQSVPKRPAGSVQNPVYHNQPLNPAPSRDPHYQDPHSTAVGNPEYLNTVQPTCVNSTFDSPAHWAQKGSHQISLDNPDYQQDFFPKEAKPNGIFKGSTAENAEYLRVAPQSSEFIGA
T3 sequence (P00533 25-1210): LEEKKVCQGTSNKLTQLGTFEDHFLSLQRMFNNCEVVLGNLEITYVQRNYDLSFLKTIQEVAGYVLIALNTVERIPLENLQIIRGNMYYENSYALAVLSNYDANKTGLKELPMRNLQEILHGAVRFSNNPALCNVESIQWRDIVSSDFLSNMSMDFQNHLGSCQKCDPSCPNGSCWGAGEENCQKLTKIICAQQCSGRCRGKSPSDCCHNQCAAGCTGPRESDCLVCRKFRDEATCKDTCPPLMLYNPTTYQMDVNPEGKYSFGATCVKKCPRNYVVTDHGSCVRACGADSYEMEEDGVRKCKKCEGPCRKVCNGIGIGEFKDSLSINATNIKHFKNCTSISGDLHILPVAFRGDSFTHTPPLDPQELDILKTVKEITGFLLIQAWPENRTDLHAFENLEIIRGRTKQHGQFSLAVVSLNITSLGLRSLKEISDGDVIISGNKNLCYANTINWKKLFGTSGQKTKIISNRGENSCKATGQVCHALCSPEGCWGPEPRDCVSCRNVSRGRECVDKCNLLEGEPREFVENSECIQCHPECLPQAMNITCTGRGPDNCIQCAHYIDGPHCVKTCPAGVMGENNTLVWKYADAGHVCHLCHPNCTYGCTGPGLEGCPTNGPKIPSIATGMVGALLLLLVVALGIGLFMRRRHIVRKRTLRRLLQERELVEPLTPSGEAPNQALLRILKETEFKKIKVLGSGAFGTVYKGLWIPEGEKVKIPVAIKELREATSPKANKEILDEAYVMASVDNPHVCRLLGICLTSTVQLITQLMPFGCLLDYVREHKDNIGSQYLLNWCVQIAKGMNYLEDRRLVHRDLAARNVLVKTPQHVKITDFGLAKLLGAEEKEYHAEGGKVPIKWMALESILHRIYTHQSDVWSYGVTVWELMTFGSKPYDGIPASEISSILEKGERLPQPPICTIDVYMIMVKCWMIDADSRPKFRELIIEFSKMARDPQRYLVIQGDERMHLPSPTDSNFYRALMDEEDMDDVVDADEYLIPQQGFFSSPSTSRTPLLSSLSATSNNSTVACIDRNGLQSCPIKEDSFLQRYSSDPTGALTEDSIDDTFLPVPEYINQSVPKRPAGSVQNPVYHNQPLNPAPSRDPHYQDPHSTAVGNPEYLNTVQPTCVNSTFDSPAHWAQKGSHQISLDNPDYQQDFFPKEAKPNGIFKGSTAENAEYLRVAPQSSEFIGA
Sequence of EGFR (D746-750) (P00533 with tags, fused parts or gaps DEL746-750): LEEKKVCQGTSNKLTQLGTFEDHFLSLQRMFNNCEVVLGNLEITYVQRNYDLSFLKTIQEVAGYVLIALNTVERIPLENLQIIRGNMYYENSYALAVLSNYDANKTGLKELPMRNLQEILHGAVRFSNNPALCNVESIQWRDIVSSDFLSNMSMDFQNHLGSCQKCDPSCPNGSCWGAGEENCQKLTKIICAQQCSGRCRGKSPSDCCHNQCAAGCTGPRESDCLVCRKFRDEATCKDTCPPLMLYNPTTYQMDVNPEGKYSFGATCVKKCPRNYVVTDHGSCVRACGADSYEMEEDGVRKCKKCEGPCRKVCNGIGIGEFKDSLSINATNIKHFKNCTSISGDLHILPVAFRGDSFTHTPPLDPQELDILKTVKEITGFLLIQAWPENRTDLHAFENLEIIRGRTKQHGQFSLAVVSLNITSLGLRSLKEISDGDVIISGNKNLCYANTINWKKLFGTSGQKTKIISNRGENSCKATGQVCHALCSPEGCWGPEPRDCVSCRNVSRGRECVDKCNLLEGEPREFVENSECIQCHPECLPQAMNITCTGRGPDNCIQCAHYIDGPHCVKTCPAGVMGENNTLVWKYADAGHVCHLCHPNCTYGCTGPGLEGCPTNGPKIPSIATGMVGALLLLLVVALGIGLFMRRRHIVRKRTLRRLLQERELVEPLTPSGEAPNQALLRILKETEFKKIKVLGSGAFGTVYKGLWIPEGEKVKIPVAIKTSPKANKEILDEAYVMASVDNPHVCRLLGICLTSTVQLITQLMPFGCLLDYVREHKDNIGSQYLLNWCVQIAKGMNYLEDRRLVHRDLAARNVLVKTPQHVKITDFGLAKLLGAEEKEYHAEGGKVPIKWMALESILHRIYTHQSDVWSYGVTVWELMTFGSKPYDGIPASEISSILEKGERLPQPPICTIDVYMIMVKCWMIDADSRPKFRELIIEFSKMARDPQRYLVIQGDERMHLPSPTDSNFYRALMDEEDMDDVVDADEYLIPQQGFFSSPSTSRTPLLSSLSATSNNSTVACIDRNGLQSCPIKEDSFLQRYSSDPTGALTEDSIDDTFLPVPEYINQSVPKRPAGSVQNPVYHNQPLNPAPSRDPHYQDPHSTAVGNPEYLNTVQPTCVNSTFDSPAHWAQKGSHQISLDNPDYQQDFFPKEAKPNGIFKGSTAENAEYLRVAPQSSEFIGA

Row | IC50 (EGFR (L858R/T790M/C797S)) [pM] | IC50 (EGFR (D746-750)) [pM] | IC50 (EGFR (D746-750/C797S)) [pM] | IC50 (EGFR (D770_N771insNPG)) [pM] | IC50 [1] [pM] | IC50 [2] [pM] | IC50 [3] [pM] | IC50 (PC-9 cells) [pM] | IC50 (NCI-H1975 cells) [pM] | IC50 (HCC827 cells) [pM] | IC50 [4] [pM] | IC50 [5] [pM] | IC50 [6] [pM] | SMILES
1 | 190 | 150 | 490 | 150 | 3640 | 3310 | 14000 | 4440 | 1960 | 500 | 1020 | 140 | 650 | CCOc1nn(CCO)c2c1/C=C/c1n[nH]c3cnc(cc13)-c1cnn(C)c1O[C@@H](C)CN(C1CC1)C2 [Ex. 30, 2-[(10S,17E)-12-cyclopropyl-16-ethoxy-8,10-dimethyl-2,8,10,11,12,13-hexahydro-14H-5,3-(azenometheno)tripyrazolo[3,4-f:3,4′-j:4″,3″-n][1,4]oxazacyclopentadecin-14-yl]ethan-1-ol]
2 | 770 | 330 | 1090 | 630 | 1080 | 1480 | 9530 | 540 | 1390 | 250 | 870 | 70 | 480 | CCOc1nn(CCO)c2c1/C=C/c1n[nH]c3cnc(cc13)-c1c(C)nn(C)c1O[C@@H](C)[C@H]1CCCN1C2 [Ex. 32, 2-[(8aR,9S,19E)-1-ethoxy-9,11,13-trimethyl-7,8,8a,9,11,17-hexahydro-6H-14,16-(azenometheno)tripyrazolo[3,4-f:3′,4′-j:4″,3″-n]pyrrolo[2,1-c][1,4]oxazacyclopentadecin-3(4H)-yl]ethan-1-ol]
3 | 310 | 150 | 660 | 170 | 1500 | 2380 | 17600 | 580 | 1100 | 440 | 1600 | 110 | 1070 | CCOc1nn(CCO)c2c1/C=C/c1n[nH]c3cnc(cc13)-c1c(C)nn(C)c1O[C@H](C)[C@H]1CCCN1C2 [Ex. 33, 2-[(8aR,9R,19E)-1-ethoxy-9,11,13-trimethyl-7,8,8a,9,11,17-hexahydro-6H-14,16-(azenometheno)tripyrazolo[3,4-f:3′,4′-j:4″,3″-n]pyrrolo[2,1-c][1,4]oxazacyclopentadecin-3(4H)-yl]ethan-1-ol]
4 | 790 | 220 | 630 | 710 | 1350 | 1340 | 9270 | 1810 | 8820 | 390 | 900 | 130 | 710 | CCOc1nn(CCO)c2c1/C=C/c1n[nH]c3cnc(cc13)-c1c(C)nn(C)c1OC[C@H](C)N(C(C)C)C2 [Ex. 2, 2-[(11S,17E)-16-ethoxy-6,8,11-trimethyl-12-(propan-2-yl)-2,8,10,11,12,13-hexahydro-14H-5,3-(azenometheno)tripyrazolo[3,4-f:3′,4′-j:4″,3″-n][1,4]oxazacyclopentadecin-14-yl]ethan-1-ol]
5 | 990 | 370 | 1330 | 1130 | 1960 | 1430 | 5290 | 3210 | 15700 | 940 | 910 | 180 | 3620 | CCOc1nn([C@@H](C)CO)c2c1/C=C/c1n[nH]c3cnc(cc13)-c1c(C)nn(C)c1OCCN(C)C2 [Ex. 59, (2S)-2-[(17E)-16-ethoxy-6,8,12-trimethyl-2,8,10,11,12,13-hexahydro-14H-5,3-(azenometheno)tripyrazolo[3,4-f:3′,4′-j:4″,3″-n][1,4]oxazacyclopentadecin-14-yl]propan-1-ol]
6 | 450 | 350 | 970 | 1630 | 11400 | 1600 | 14700 |  |  |  | 920 | 280 | 3340 | Cc1nc2cc3c(n[nH]c13)/C=C/c1c(OC(C)C)nn(CCO)c1CN(C)C[C@H](C)Oc1c-2cnn1C [Ex. 40, 2-[(10S,17E)-8,10,12,20-tetramethyl-16-[(propan-2-yl)oxy]-2,8,10,11,12,13-hexahydro-14H-5,3-(azenometheno)tripyrazolo[3,4-f:3′,4′-j:4″,3″-n][1,4]oxazacyclopentadecin-14-yl]ethan-1-ol]
7 | 980 | 450 | 1110 | 670 | 820 | 1260 | 8410 | 320 | 920 | 280 | 610 | 50 | 480 | CCOc1nn([C@@H](C)CO)c2c1/C=C/c1n[nH]c3cnc(cc13)-c1c(C)nn(C)c1O[C@@H](C)[C@H]1CCCN1C2 [Ex. 56, (2S)-2-[(8aR,9S,19E)-1-ethoxy-9,11,13-trimethyl-7,8,8a,9,11,17-hexahydro-6H-14,16-(azenometheno)tripyrazolo[3,4-f:3′,4′-j:4″,3″-n]pyrrolo[2,1-c][1,4]oxazacyclopentadecin-3(4H)-yl]propan-1-ol]
8 | 370 | 180 | 630 | 230 | 3140 | 6120 | 37000 | 17800 | 55600 | 2080 | 1210 | 160 | 17100 | Cc1nn(C)c2c1-c1cc3c(n[nH]c3cn1)/C=C/c1c(C#N)nn([C@@H](C)CO)c1CN(C)C[C@H](C)O2 [Ex. 48, (10S,17E)-14-[(2S)-1-hydroxypropan-2-yl]-6,8,10,12-tetramethyl-2,10,11,12,13,14-hexahydro-8H-5,3-(azenometheno)tripyrazolo[3,4-f:3′,4′-j:4″,3″-n∥1,4]oxazacyclopentadecine-16-carbonitrile]
9 | 500 | 320 | 850 | 480 | 2110 | 2180 | 22700 | 6570 | 26400 | 630 | 1870 | 270 | 6080 | CCOc1nn(CCO)c2c1/C=C/c1n[nH]c3cnc(cc13)-c1c(C)nn(C)c1OC[C@H]1CCCN1C2 [Ex. 39]
10 | 250 | 240 | 540 | 1900 | 18800 | 3110 | 47500 | 48800 | 27100 | 7900 | 4010 | 6500 | 22100 | CCOc1nn(CCO)c2c1/C=C/c1n[nH]c3c(C)nc(cc13)-c1cnn(C)c1O[C@H](C)CN(C)C2 [Ex. 38, 2-[(10R,17E)-16-ethoxy-8,10,12,20-tetramethyl-2,8,10,11,12,13-hexahydro-14H-5,3-(azenometheno)tripyrazolo[3,4-f:3′,4′-j:4″,3″-n][1,4]oxazacyclopentadecin-14-yl]ethan-1-ol]

Source: patent publication US20260317344A1, “EGFR INHIBITORS FOR TREATING DISEASE” (BLOSSOMHILL THERAPEUTICS, INC., priority 2023, published 2026)
